Assay results taken from PMC7822874, “Chemoprotective antimalarials identified through quantitative high-throughput screening of Plasmodium blood and liver stage parasites” (Scientific Reports, 2021).
Like-named read-outs stand apart in the source and are kept apart here.

Assays:
[1] = system: Plasmodium falciparum Dd2 asexual blood stage parasites; test: microbe, parasite or virus in culture; set-up: species or system Plasmodium falciparum Dd2 in human erythrocytes; single determination (one 11-point concentration-response curve); settings: Plasmodium falciparum, DD2, Erythrocyte, 72 h; read-out: AC50
[2] = system: luciferase-expressing P. berghei liver stage parasites in HepG2 cells; test: Inhibition of liver-stage development assay (ILSDA), Method 2 (WRAIR, 96-well); format: cell-based, Plasmodium berghei; settings: for Max Resp (signal direction of the dose response): Decrease = decreasing P. berghei viability with dose, Increase = increasing signal, Inactive = no dose response
[3] = system: P. berghei-ANKA-GFP-LucCON liver stage parasites in HepG2-A16-CD81EGFP cells; test: P. berghei liver stage Pb-Luc assay, Method 1 (UCSD, 1536-well); format: cell-based, Plasmodium berghei; settings: for activity at 1 µM / activity at 3 µM / AC50: Plasmodium berghei; for activity at 1 µM / activity at 3 µM: 48 h, average of 2 wells on a 1536 well plate; for activity at 1 µM: 1 uM (compounds provided at 10 mM); for activity at 3 µM: 3 uM (compounds provided at 10 mM); for Max Resp (signal direction of the dose response) / AC50: Method 1; for Max Resp (signal direction of the dose response): Decrease = decreasing P. berghei viability with dose, Increase = increasing signal, Inactive = no dose response
[4] = Plasmodium berghei, HepG2, Method 2, Hill fit, 50% of maximum activity response, read-out: AC50
[5] = Plasmodium berghei, HepG2, Method 2, log10 of molar AC50 from Hill fit, read-out: Log AC50 (converted)
[6] = Hill fit, 50% of maximum activity response, read-out: AC50
[7] = log10 of molar AC50 from Hill fit, read-out: Log AC50 (converted)
[8] = Method 2, Hill fit, 50% of maximum activity response, read-out: AC50
[9] = Method 2, log10 of molar AC50 from Hill fit

Row | SMILES | AC50 [1] | Max Resp (signal direction of the dose response) ([2]; Method 2) | AC50 [2, 4] | AC50 [2, 5] | Max Resp (signal direction of the dose response) [3] | also measured
1 | Cc1ccc(-c2nn3c(=O)c4c([nH]c3c2C)CCCC4)cc1 [MLS000029798-01] | 2990 nM | Decrease | 282 nM | 282 nM | – | activity at 1 µM ([3]; column 11, read-out: Pb-Luc (P. berghei liver stage), % of control, lower concentration, first repeat): 15%; activity at 1 µM ([3]; column 12, read-out: Pb-Luc (P. berghei liver stage), % of control, lower concentration, second repeat): 11%; activity at 3 µM ([3]; column 8, read-out: Pb-Luc (P. berghei liver stage), % of control, higher concentration, first repeat): 6.61%; activity at 3 µM ([3]; column 9, read-out: Pb-Luc (P. berghei liver stage), % of control, higher concentration, second repeat): 8%
2 | Cc1ccc2[nH]c(-c3ccccc3)cc(=O)c2c1 [MLS000112473-01] | 4730 nM | Decrease | 5620 nM | 5620 nM | – | –
3 | CCCCCCCc1c(C)[nH]c(N2CCOCC2)nc1=O [MLS000531187-01] | 5310 nM | Decrease | 5620 nM | 5620 nM | – | –
4 | CC1CCc2cc(F)ccc2N1C(=O)CSc1nnc2c(n1)[nH]c1ccccc12 (stereo not shown) [MLS000557140-01] | 7500 nM | Decrease | 5620 nM | 5620 nM | – | –
5 | N#C/C(=C\c1ccc(Sc2ccc(Cl)cc2)o1)c1nc2ccccc2[nH]1 [MLS000579372-01] | 2990 nM | Decrease | 501 nM | 501 nM | – | –
6 | COc1ccc2nc(C)cc(Nc3ccc(Cl)c(Cl)c3)c2c1 [NCGC00098192-01] | 2660 nM | Decrease | 398 nM | 398 nM | Inactive | –
7 | COc1cc(/C=C(\C#N)c2nc3ccccc3[nH]2)ccc1OCc1ccc(F)cc1 [NCGC00102606-01] | 5310 nM | Decrease | 794 nM | 794 nM | Decrease | AC50 [3, 6]: 1410 nM; AC50 [3, 7]: 1410 nM
8 | Cc1ccc(NC2=C(c3ccc(C(F)(F)F)cc3)C(=O)c3ccccc32)cc1F [NCGC00107266] | – | Decrease | 112 nM | 112 nM | – | –
9 | Cc1ccc(NC2=C(c3ccc(C(F)(F)F)cc3)C(=O)c3ccccc32)cc1C [NCGC00107300] | – | Decrease | 398 nM | 398 nM | – | –
10 | Cc1ccc(C)c(NC2=C(c3ccc(C(F)(F)F)cc3)C(=O)c3ccccc32)c1 [NCGC00107302] | – | Decrease | 398 nM | 398 nM | – | –
11 | O=C1C(c2ccc(C(F)(F)F)cc2)=C(Nc2ccc(Cl)cc2)c2ccccc21 [NCGC00107304] | – | Inactive | – | – | – | –
12 | COc1ccc(NC2=C(c3ccc(C(F)(F)F)cc3)C(=O)c3ccccc32)cc1 [NCGC00107310] | – | Decrease | 282 nM | 282 nM | – | –
13 | Cc1cccc(N2CCN(c3nc4ccccc4c4nnc(C)n34)CC2)c1C [NCGC00107423-01] | 5310 nM | Decrease | 89 nM | 89.1 nM | Inactive | –
14 | Cc1cccc(N2CCN(c3nc4ccccc4c4nnc(C)n34)CC2)c1C [NCGC00107423] | – | Inactive | – | – | – | –
15 | COc1cccc(NC(=O)c2cccc3c(=O)c4c([nH]c23)CCCC4)c1 [NCGC00119838-01] | 2990 nM | Increase | – | – | Inactive | –
16 | Cc1cccc(N(C)c2nc3ccccc3c3nnc(C)n23)c1 [NCGC00126108-01] | 1060 nM | Decrease | – | – | Decrease | AC50 [2, 8]: 447 nM; Log AC50 (M) [2, 9]: -6.350 M; AC50 [3, 6]: 316 nM; AC50 [3, 7]: 316 nM
17 | Cc1cccc(N(C)c2nc3ccccc3c3nnc(C)n23)c1 [NCGC00126108] | – | Decrease | – | – | – | AC50 [2, 8]: 200 nM; Log AC50 (M) [2, 9]: -6.700 M
18 | CCOC(=O)c1[nH]c(C)c(CCC(=O)N2CCN(c3cccc(C)c3C)CC2)c1C [NCGC00134568-01] | 1330 nM | Decrease | 562 nM | 562 nM | Inactive | –
19 | CCOC(=O)c1[nH]c(C)c(CCC(=O)N2CCN(c3cc(Cl)ccc3C)CC2)c1C [NCGC00134588-01] | 1190 nM | Decrease | 708 nM | 708 nM | Inactive | –
20 | COc1ccc2nc(C[C@@H]3C[C@@H](C(C)C)[C@H](CNCc4ccccc4O)C=C3C)[nH]c2n1 [NCGC00391280-01] | 243 nM | Inactive | – | – | – | AC50 [3, 6]: 1580 nM; AC50 [3, 7]: 1580 nM
